We go through 15 compounds from publication PMC11973506, “In vitro α–Glucosidase Inhibition, Cytotoxicity, SAR, Swiss ADME Prediction and Molecular Docking Study of New N–Substituted Hydantoin Derivatives” (ChemistryOpen, 2025).

Where two headings read alike, the source gives them in different places.

One data set relates to Caco2 cell line. As to conditions: 48 hours of treatment with 100 μM, below 2000 considered toxic. As to the method:
Cytotoxicity screening is one of the important tools used to determine whether a compound is toxic or not. Furthermore, these assays are performed by testing the ability of cells to continue proliferating in the presence of a test compound or substance over a specific period.[23] All hydantoin title compounds 8 a–o were screened for their in vitro cytotoxicity activity using the Caco2 cell line against the untreated (UT) and melphalan as a control. […] Any compound with living cells below […] was considered to be toxic.
The human colorectal adenocarcinoma cell line (CaCO2) used to screen the cytotoxicity of compounds 8 a–o was based on our initially described protocol.[21] […] Samples were sonicated if solubility was a problem and stored at 4 °C until required. Melphalan (100 mM stock) was prepared in DMSO and used as a positive control at a final concentration of 30 μM. The cells (4000 cells/well) were seeded in 96 well plates at 100 μL aliquots and were left for 24 hours to attach. After 24 hours, the 100 μL of the medium was treated with 100 μL aliquots of 200 μM dilution. Cells were maintained in 10 cm culture dishes in 10 mL complete medium (DMEM‐LG+10 % FBS+1× penicillin/streptomycin) and incubated for 48 hours at 37 °C, 5 % CO2, and 100 % relative humidity until needed. After incubation 100 μL staining solution Hoechst (5 μg/mL) and 10 μL PI solution were stained on the plates before they were incubated again for 30 min. Quantification of live and dead cells was performed using the ImageXpress Micro XLS Widefield Microscope (Molecular Devices) using a 10× Plan Fluor objective and DAPI and Texas Red filter cubes. Acquired images were analyzed using the MetaXpress software and Multi‐Wavelength Cell Scoring Application Module. Acquired data was transferred to an Excel spreadsheet and data was analyzed and processed.

Data set [1] deals with T1, Saccharomyces cerevisiae α-glucosidase (Saccharomyces cerevisiae, UniProt P53341).
T1 construct: purchased
T1 sequence (P53341 whole entry): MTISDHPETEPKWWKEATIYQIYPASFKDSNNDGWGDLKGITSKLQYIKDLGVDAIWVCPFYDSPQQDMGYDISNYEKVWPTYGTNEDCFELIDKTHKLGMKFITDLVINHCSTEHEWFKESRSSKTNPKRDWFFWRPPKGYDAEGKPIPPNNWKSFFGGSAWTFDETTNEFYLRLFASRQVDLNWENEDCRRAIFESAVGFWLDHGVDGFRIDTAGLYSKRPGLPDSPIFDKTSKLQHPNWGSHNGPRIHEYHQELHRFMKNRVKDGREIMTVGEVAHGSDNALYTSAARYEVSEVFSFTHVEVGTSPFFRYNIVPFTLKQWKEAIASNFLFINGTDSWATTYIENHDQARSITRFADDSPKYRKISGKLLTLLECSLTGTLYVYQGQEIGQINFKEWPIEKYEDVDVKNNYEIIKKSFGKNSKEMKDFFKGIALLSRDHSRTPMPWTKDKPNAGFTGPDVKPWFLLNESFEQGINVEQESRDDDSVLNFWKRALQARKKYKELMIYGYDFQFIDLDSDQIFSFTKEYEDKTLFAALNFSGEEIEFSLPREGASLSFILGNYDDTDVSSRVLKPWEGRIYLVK
Description: In vitro α-glucosidase inhibition assay (p-nitrophenyl glucopyranoside substrate). It is filed as biochemical. As to the method: Using Saccharomyces cerevisiae α‐glucosidase enzymes, hydantoin derivatives 8 a–o were evaluated for them for their in vitro α‐glucosidase activity.
The α‐glucosidase inhibitions of compounds 8 a–o were screened as described in our previous method.[21] Epigallacatechin gallate (EGCG) was used as positive control. The α‐glucosidase enzyme (Saccharomyces Cerevisiae, 50 μg/mL) and substrate (p‐nitrophenyl glucopyranoside) were dissolved in a solution of potassium phosphate buffer (pH 6.3, 3 mM). Final compounds 8 a–o were dissolved in DMSO to give a final concentration of 200 μM. […] All samples (5 μL), enzyme (20 μL), and potassium phosphate buffer (60 μL) were added to the 96‐well plate and incubated at 37 °C for 5 min. Thereafter, the substrate (10 μL, 4 mM) was added to the mixture and incubated at 37 °C for 20 min followed by the addition of sodium carbonate (25 μL). Finally, the absorbance readings were measured by BioTek® PowerWave XS spectrophotometer (Winooski, VT, USA). Since the enzyme and substrate controls […], the percentage of α‐glucosidase inhibition was calculated using follows: (1) %α-glucosidaseinhibition=(A405nmofcontrol-A405nmoftestsample)/A405nmofcontrol×100

The mark [2] stands for this setting: text statement for 50 and 100 μM together.

On to `CCC(NC(=O)CN1C(=O)N/C(=C\c2ccc(C)cc2)C1=O)C(=O)OC` (stereo not drawn) [8 f], for which, in the data set on Caco2 cell line, the “Cytotoxicity, live cells” value came to 2230 ± 570. In data set [1] (10 μM), this compound had an inhibition at 10 µM of 4.92 ± 18%. Besides, the inhibition at 50 µM in data set [1] (50 μM) turned out to be 8.87 ± 21.3%. The inhibition at 100 µM in data set [1] (100 μM) stood at 12.2 ± 10.9%.
Regarding `COC(=O)C(C)NC(=O)CN1C(=O)N/C(=C\c2ccc(OC)cc2)C1=O` (stereo not drawn) [8 a], the “Cytotoxicity, live cells” value in the data set with Caco2 cell line is 2605; in the data set on Caco2 cell line (listed as 8a), 2605 ± 293. The inhibition at 200 µM in data set [1] (200 μM) was found to be 51.6 ± 2.92%. In addition, the α-glucosidase inhibition entry in data set [1] (200 μM) is reported as “moderate inhibition”; in data set [1] (setting [2]), “no activity”.
In data set [1] (50 μM), `CCCC(NC(=O)CN1C(=O)N/C(=C\c2ccc(C)cc2)C1=O)C(=O)OCC` (stereo not drawn) [8 k] gave an inhibition at 50 µM of 14.5 ± 5.42%. Moreover, in data set [1] (100 μM), the inhibition at 100 µM was 17 ± 8.54%. In data set [1] (200 μM), this compound registered an inhibition at 200 µM of 41.9 ± 3.31%.
Take `COC(=O)C(NC(=O)CN1C(=O)N/C(=C\c2ccc(C)cc2)C1=O)C(C)C` (stereo not drawn) [8 g]: the inhibition at 10 µM in data set [1] (10 μM) amounted to 1.8 ± 13.8%. 50 µM produced 4.13 ± 4.26% inhibition in data set [1] (50 μM). In data set [1] (100 μM), 100 µM produced 18 ± 3.95% inhibition. In data set [1] (200 μM), this compound gave an inhibition at 200 µM of 45.2 ± 3.6%.
Regarding `CCC(NC(=O)CN1C(=O)N/C(=C\c2ccc3c(c2)OCO3)C1=O)C(=O)OC` (stereo not drawn) [8 m], the α-glucosidase inhibition entry in data set [1] (10 μM) is reported as “‐”. Further, in data set [1] (50 μM), the inhibition at 50 µM worked out at 6.94 ± 10.9%. Further, 100 µM produced 11.2 ± 11% inhibition in data set [1] (100 μM). The compound also came in with an inhibition at 200 µM in data set [1] (200 μM) of 37.6 ± 10%.
Compound `CCCC(NC(=O)CN1C(=O)N/C(=C\c2ccc(C)cc2)C1=O)C(=O)OC` (stereo not drawn) [8 h] gave an inhibition at 10 µM in data set [1] (10 μM) of 3.45 ± 13.6%. The compound also came in with an inhibition at 50 µM in data set [1] (50 μM) of 16.3 ± 15.2%. Moreover, the inhibition at 100 µM in data set [1] (100 μM) came out at 25.4 ± 7.88%. The same compound came in with an inhibition at 200 µM in data set [1] (200 μM) of 42.8 ± 4.3%.
Consider `COC(=O)C(C)NC(=O)CN1C(=O)N/C(=C\c2ccc3c(c2)OCO3)C1=O` (stereo not drawn) [8 l], for which the α-glucosidase inhibition entry in data set [1] (10 μM) was “‐”. In data set [1] (50 μM), the inhibition at 50 µM is 7.7 ± 17.8%. Also, 100 µM produced 9.6 ± 23% inhibition in data set [1] (100 μM). Moreover, the inhibition at 200 µM in data set [1] (200 μM) was 57.4 ± 4.05%.
As for `CCOC(=O)C(NC(=O)CN1C(=O)N/C(=C\c2ccc(C)cc2)C1=O)C(C)C` (stereo not drawn) [8 j], the “Cytotoxicity, live cells” value with Caco2 cell line turned out to be 2565 ± 198. The compound also yielded an inhibition at 10 µM in data set [1] (10 μM) of 6.49 ± 17.8%. The compound also showed an inhibition at 50 µM in data set [1] (50 μM) of 13.8 ± 9.6%. The same compound showed an inhibition at 100 µM in data set [1] (100 μM) of 19.2 ± 10.2%. In addition, 200 µM produced 48.5 ± 2.33% inhibition in data set [1] (200 μM).
`CCCC(NC(=O)CN1C(=O)N/C(=C\c2ccc3c(c2)OCO3)C1=O)C(=O)OC` (stereo not drawn) [8 o] returned an inhibition at 10 µM in data set [1] (10 μM) of 11.3 ± 15.2%. For the same compound, at 50 µM the inhibition in data set [1] (50 μM) was 16 ± 17.9%. This compound also displayed an inhibition at 100 µM in data set [1] (100 μM) of 37.4 ± 24.9%. The compound also had an inhibition at 200 µM in data set [1] (200 μM) of 57.8 ± 6.38%.
For `CCOC(=O)C(NC(=O)CN1C(=O)N/C(=C\c2ccc3c(c2)OCO3)C1=O)C(C)C` (stereo not drawn) [8 n], in the data set with Caco2 cell line, the “Cytotoxicity, live cells” value worked out at 2039 ± 740. In data set [1] (10 μM), this compound gave an inhibition at 10 µM of 0.73 ± 11.4%. In data set [1] (50 μM), this compound yielded an inhibition at 50 µM of 14 ± 16.4%. For the same compound, testing at 100 µM in data set [1] (100 μM) gave an inhibition of 28.3 ± 17.3%. Besides, in data set [1] (200 μM), 200 µM produced 57.4 ± 2.79% inhibition.
The compound `COC(=O)C(NC(=O)CN1C(=O)N/C(=C\c2ccc(OC)cc2)C1=O)C(C)C` (stereo not drawn) [8 c] yielded an inhibition at 50 µM in data set [1] (50 μM) of 3.37 ± 11.5%. In data set [1] (100 μM), this compound came in with an inhibition at 100 µM of 9.51 ± 19.7%. For the same compound, the inhibition at 200 µM in data set [1] (200 μM) was found to be 41 ± 2.62%.
With `COC(=O)C(C)NC(=O)CN1C(=O)N/C(=C\c2ccc(C)cc2)C1=O` (stereo not drawn) [8 e], the “Cytotoxicity, live cells” value in the data set on Caco2 cell line stood at 2567 ± 299. In data set [1] (10 μM), the α-glucosidase inhibition entry is on record as “‐”. Besides, the inhibition at 50 µM in data set [1] (50 μM) came to 9.01 ± 16.4%. The inhibition at 100 µM in data set [1] (100 μM) came out at 9.75 ± 6.4%. In data set [1] (200 μM), this compound came in with an inhibition at 200 µM of 51.4% and a α-glucosidase inhibition of 31.35 ± 1.95%.
In turn, `CCC(NC(=O)CN1C(=O)NC(=Cc2ccc(OC)cc2)C1=O)C(=O)OC` (stereo not drawn) [8 b] gave an inhibition at 50 µM in data set [1] (50 μM) of 0.43 ± 16.8%. Also, in data set [1] (200 μM), the inhibition at 200 µM worked out at 39.3 ± 1.01%.
As to `CCOC(=O)C(C)NC(=O)CN1C(=O)N/C(=C\c2ccc(C)cc2)C1=O` (stereo not drawn) [8 i], the “Cytotoxicity, live cells” value in the data set with Caco2 cell line turned out to be 2595 ± 289. In addition, the α-glucosidase inhibition entry in data set [1] (10 μM) is reported as “‐”; in data set [1] (50 μM), “‐”; in data set [1] (100 μM) it was “‐”; in data set [1] (setting [2]), “no activity”. Further, testing at 200 µM in data set [1] (200 μM) gave an inhibition of 44.6 ± 0.99%.
With `O=C(O[C@@H]1Cc2c(O)cc(O)cc2O[C@@H]1c1cc(O)c(O)c(O)c1)c1cc(O)c(O)c(O)c1` [EGCG, Epigallocatechin gallate, reference compound], at 10 µM the inhibition in data set [1] (10 μM) was 97.03 ± 0.41%. Further, in data set [1] (50 μM), the inhibition at 50 µM was determined as 97.03 ± 0.41%. Further, 100 µM produced 97.03 ± 0.41% inhibition in data set [1] (100 μM). In data set [1] (200 μM), at 200 µM the inhibition was 97.03 ± 0.41%.
